Measured values taken from patent US20040029928A1, “Novel propenohydroxamic acid derivatives” (priority 2000, published 2004).

Experiments:
[1] = target: T1, MMP-1 (Homo sapiens, UniProt P03956); assay: Measurement of MMP-1 inhibitory activity; type: biochemical; conditions: MMP-1 (Cosmo Bio), fluorogenic substrate
T1 construct: purchased Cosmo Bio Co
T1 sequence (P03956 100-469): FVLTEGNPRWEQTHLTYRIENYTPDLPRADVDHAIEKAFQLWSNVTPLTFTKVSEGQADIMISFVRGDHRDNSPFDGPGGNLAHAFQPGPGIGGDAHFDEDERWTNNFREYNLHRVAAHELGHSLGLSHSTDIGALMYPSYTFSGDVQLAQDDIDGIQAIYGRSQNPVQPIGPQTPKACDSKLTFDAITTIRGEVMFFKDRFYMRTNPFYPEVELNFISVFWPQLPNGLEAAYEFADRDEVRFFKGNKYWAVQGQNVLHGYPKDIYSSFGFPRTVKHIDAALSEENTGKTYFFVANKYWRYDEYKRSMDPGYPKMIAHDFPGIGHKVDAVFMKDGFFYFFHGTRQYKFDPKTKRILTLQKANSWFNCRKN
Description: Test 2 (Measurement of MMP-1 Inhibitory Activity)
MMP-1 inhibitory activity (IC50 value) was measured in accordance with the above-described measuring method of TACE inhibitory activity by using MMP-1 (product of Cosmo Bio Co.) and, as a substrate, 7-methoxycoumarin-4-yl-acetyl-PLGL-[N^3-(2,4-dinitrophenyl)2,3-diaminopropionyl]-AR—NH2 (product of Peptide Institute Inc.). The fluorescence intensity was measured using POLAR STAR (Ex: 340 nm, Em: 405 nm).

[2] = target: T2, TACE (crude extracted protein from membrane fraction of THP-1 cells) (Homo sapiens, UniProt P78536); assay: In vitro TACE inhibitory activity (fluorogenic peptide substrate); type: biochemical; conditions: crude TACE 10 μg/mL, substrate 20 μM, room temperature, at least 4 hours
T2 construct: The supernatant was collected, which was provided for use as a TACE crude extract; endogenous in cells; host or cells: THP-1 cells stimulated with LPS, silica and hydroxyurea; membrane fraction solubilised with 1% Triton X-100
T2 sequence (P78536 215-824): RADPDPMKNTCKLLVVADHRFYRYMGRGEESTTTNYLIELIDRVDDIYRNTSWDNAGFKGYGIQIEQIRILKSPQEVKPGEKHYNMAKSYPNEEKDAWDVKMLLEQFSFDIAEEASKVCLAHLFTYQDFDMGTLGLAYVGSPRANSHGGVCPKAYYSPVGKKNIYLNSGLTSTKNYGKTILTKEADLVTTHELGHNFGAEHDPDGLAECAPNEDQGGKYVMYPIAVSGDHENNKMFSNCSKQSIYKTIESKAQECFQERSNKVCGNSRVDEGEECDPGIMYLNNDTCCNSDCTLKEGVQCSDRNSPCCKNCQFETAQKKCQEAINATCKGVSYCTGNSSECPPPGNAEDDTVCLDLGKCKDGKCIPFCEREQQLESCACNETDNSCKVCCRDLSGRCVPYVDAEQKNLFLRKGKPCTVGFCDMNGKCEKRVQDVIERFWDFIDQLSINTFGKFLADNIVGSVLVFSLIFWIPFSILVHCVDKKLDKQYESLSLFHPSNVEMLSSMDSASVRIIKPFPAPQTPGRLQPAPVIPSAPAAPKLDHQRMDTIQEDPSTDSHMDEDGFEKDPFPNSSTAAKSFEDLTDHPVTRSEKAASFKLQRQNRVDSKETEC
Description: Test 1 (In Vitro TACE Inhibitory Activity)
(1) Crude Extraction of TACE from THP-1 Cell Membrane
To THP-1 cells (cell density: 2×10^6/mL) suspended in RPMI 1640 medium containing 1% FBS were added LPS (E. coli 055:B55, final concentration: 1 pg/mL), silica (0.014 μm, final concentration: 50 μg/mL) and hydroxyurea (final concenration: 2 mM), followed by cultivation at 37° C. for 16 hours under 5%-CO2 conditions. The resulting cells were then washed once with RPMI 1640 medium free of FBS. The cells were suspended in 3 times the pellet volume of Solution A (10 mM sodium phosphate (pH 7.4), 1 mM MgCl2, 30 mM NaCl, 0.02% NaN3, 5 μM PMSF (phenyl methyl sulfonyl fluoride)). The cells were ground by a Polytron homogenizer (5 sec×5 times, ice cooling for 1 to 2 minutes each time). The homogenate solution was stacked over 41% sucrose-Solution A, followed by centrifugation (150,000 g×1 hour). After centrifugation, the intermediate layer was collected and diluted with 4 volumes of Solution A, followed by centrifugation (150,000 g×20 min). A sufficient amount of a solubilizing solution (1%-Triton X-100-A solution) was added (protein concentration: 1 mg/mL) and the mixture was stirred (4° C.×1 hour). Stirring was followed by centrifugation (100,000 g×30 min, 4° C.). The supernatant was collected, which was provided for use as a TACE crude extract.
(2) Measurement of TACE Inhibitory Activity
TACE (crude extracted protein from membrane fraction of THP-1 cells, final concentration: 10 μg/mL), each of test compounds (DMSO final concentration: 1%) shown in Table 1 and an incubate solution (50 mM Tris-HCl (pH 7.4), 5 mM CaCl2, 0.002% NaN3, 0.002% Brij 35) was added to a 96-well black plate. After pre-incubation at room temperature for 30 minutes, a substrate (N-methylanthranilyl-LAQAVRSK(DNP)rr-NH2: product of PEPTIDE INSTITUTE, INC., final concentration: 20 μM) was added, followed by incubation at room temperature for at least 4 hours. The fluorescence intensity was measured using POLAR STAR (Ex: 340 nm, Em: 430 nm) and from it, TACE inhibitory activity (IC50 value) was calculated.

[3] = system: secretion of TNF-α, THP-1 cells; assay: Inhibitory activity against secretion of TNF-α in LPS-stimulated THP-1 cells (ELISA); type: cell-based; conditions: Homo sapiens, LPS 100 ng/mL, 37° C., 4 hours, ELISA of supernatant
Description: Test 3 (Measurement of Inhibitory Activity Against on of TNF-α)
To THP-1 cells (5×10^5 mL) suspended in RPMI 1640 medium containing 10% FBS were added LPS (100 ng/mL) and a medicament of various concentrations (DMSO final concentration: 0.1%), followed by incubation at 37° C. for 4 hours under 5%-CO2 conditions. The TNF-α in the cultured supernatant was analyzed by ELISA, whereby inhibitory activity (IC50) against secretion of TNF-α was calculated.

Compound: CN(c1cccc(/C(=C\C(=O)NO)c2ccccc2)c1)S(=O)(=O)c1ccc([N+](=O)[O-])cc1 [Compound 68, Z-3-[3-[N-(4-Nitrobenzenesulfonyl)-N-methylamino]phenyl]-3-phenylpropenohydroxamic Acid]
- melting point: 153 to 155 °C
- IC50 [1]: > 10 µM
- IC50 [2]: 0.035 µM

Compound: COc1ccc(S(=O)(=O)N(C)c2cccc(/C(=C\C(=O)NO)c3ccccc3)c2)cc1OC [Compound 75, Z-3-[3-[N-(3,4-Dimethoxybenzenesulfonyl)-N-methylamino]phenyl]-3-phenylpropenohydroxamic acid]
- IC50 [3]: 6.4 µM
- melting point: 98 to 101 °C
- IC50 [1]: > 10 µM
- IC50 [2]: 0.013 µM

Compound: COc1ccc(S(=O)(=O)N(c2cccc(/C(=C\C(=O)NO)c3cccnc3)c2)C(C)C)cc1 [Compound 88, E-3-[3-[N-(4-Methoxybenzenesulfonyl)-N-isopropylamino]phenyl]-3-(3-pyridyl)propenohydroxamic acid]
- IC50 [3]: 2.8 µM
- melting point: 158 to 160 °C
- IC50 [1]: > 10 µM
- IC50 [2]: 0.0064 µM

Compound: COc1ccc(S(=O)(=O)N(C)c2cccc(/C(=C\C(=O)NO)c3cccnc3)c2)cc1 [Compound 89, E-3-[3-[N-(4-Methoxybenzenesulfonyl)-N-methylamino]phenyl]-3-(3-pyridyl)propenohydroxamic Acid]
- IC50 [3]: 4.1 µM
- IC50 [1]: > 10 µM
- IC50 [2]: 0.007 µM

Compound: COc1ccc(S(=O)(=O)N(c2cccc(/C(=C\C(=O)NO)c3ccc[n+]([O-])c3)c2)C(C)C)cc1 [Compound 93, E-3-[3-[N-(4-methoxybenzenesulfonyl)-N-isopropylamino]phenyl]-3-(3-pyridyl N-oxide)propenohydroxamic Acid]
- IC50 [3]: 5.5 µM
- IC50 [1]: > 10 µM
- IC50 [2]: 0.013 µM

Compound: COc1ccc(S(=O)(=O)N(C)c2cccc(/C(=C\C(=O)NO)c3ccc[n+]([O-])c3)c2)cc1 [Compound 94, E-3-[3-[N-(4-Methoxybenzenesulfonyl)-N-methylamino]phenyl]-3-(3-pyridyl N-oxide)propenohydroxamic Acid]
- IC50 [1]: > 10 µM
- IC50 [2]: 0.013 µM
